The text below walks through data of ChEMBL document CHEMBL1156829 (Proc Natl Acad Sci U S A, 2008).

Series [1] can be described thus: NOVARTIS: Cytotoxicity against human hepatocellular carcinoma cell line (Huh7). It is filed as toxicity, cell-based, Huh-7. The conditions noted are these: Huh7 cells (hepatocellular carcinoma cell line).
Series [2] relates to Plasmodium falciparum. Put plainly: NOVARTIS: Inhibition of Plasmodium falciparum 3D7 (drug-susceptible) proliferation in erythrocyte-based infection assay. The series is classed as functional, organism-based. To be noted: Plasmodium falciparum, 3D7.
For series [3], the system named is Plasmodium falciparum. The series can be described thus: NOVARTIS: Inhibition of Plasmodium falciparum W2 (drug-resistant) proliferation in erythrocyte-based infection assay. The series is classed as functional, organism-based. The conditions noted are these: Plasmodium falciparum, W2; read-out: EC50.

Structures are written as SMILES.

The CC50 is the concentration giving 50% cytotoxicity. Low readings indicate greater toxicity to the cells, high ones lower toxicity to the cells. The EC50 is the concentration needed to bring the measured effect to its halfway point. As to `O=C(CSc1oc(-c2ccc(Cl)cc2)nc1[P+](c1ccccc1)(c1ccccc1)c1ccccc1)c1ccccc1`, the CC50 in series [1] was > 10 µM. For the same compound, the EC50 in series [2] is 851 nM; in series [3], > 1180 nM.
Taken in the same sequence, the figures for `COc1cc(CNCCCn2ccnc2)ccc1OCc1ccccc1` were > 10 µM, > 1250 nM and > 1170 nM.
The compound `NC(Cc1ccccc1)C(=O)N1CCC(Nc2nsc3ccccc23)C1` (configuration not stated) had a CC50 in series [1] of 12.7 µM. For the same compound, the EC50 in series [2] stood at 1110 nM; in series [3], 1510 nM.
As to `O=C(COc1cccc(Br)c1)NN=Cc1ccccc1F`, in series [1], the CC50 was > 10 µM. Further, the results for the EC50 in series [2] and in series [3] were > 1250 nM and > 1190 nM, respectively.
For `CCCCCN(C(=O)c1ccc(Cl)cc1)C(CC)c1nc2ccccc2c(=O)n1-c1ccccc1OC` (configuration not stated) the same measures were > 8.82 µM, 878 nM and 1050 nM.
Taken in the same sequence, the figures for `COC(=O)[C@@H]1C[C@@H](NC(=O)c2ccc(OC)cc2OC)CN1CC(c1ccccc1)c1ccccc1` were > 10 µM, 590 nM and 1190 nM.
On to `COc1cc(OC)cc(-n2c(=O)c3sccc3n(CC(=O)c3ccc(F)cc3)c2=O)c1`, for which, in series [1], the CC50 is > 10 µM. Further, the EC50 in series [2] is > 1250 nM; in series [3] it was > 1170 nM.
Taken in the same sequence, the figures for `CCCNC(=O)CSc1nc(C)c(Cc2ccccc2)c(=O)n1C` were > 10 µM, 1280 nM and 1170 nM.
For the compound `CCN(CC)S(=O)(=O)c1cc(C(=O)O)ccc1Cl`, the CC50 in series [1] is > 10 µM. For the same compound, the EC50 in series [2] is 640 nM; in series [3] it was > 1170 nM.
For `CN1CCC(N[C@@H]2C[C@@H](C(=O)N3CCN(c4cccc(C(F)(F)F)c4)CC3)N(Cc3ccccc3Cl)C2)CC1` the same measures were > 10 µM, > 1250 nM and > 1170 nM.
In the case of `O=C(Cc1ccc(F)cc1Cl)N1CCN(c2cccc3c2C(=O)N(Cc2ccccn2)C3=O)CC1`, the CC50 in series [1] was > 10 µM. The EC50 in series [2] was > 1250 nM; in series [3], > 1170 nM.
Taken in the same sequence, the figures for `CC(C)c1ccc(OCC(=O)NN=Cc2cccc([N+](=O)[O-])c2)cc1` were > 10 µM, > 1250 nM and > 1170 nM.
For `O=C(Nc1ccc(Br)cn1)c1ccc(Oc2cc(Oc3cccc(Cl)c3)cc([N+](=O)[O-])c2)cc1` the same measures were > 10 µM, > 1250 nM and > 1180 nM.
With `CCOC(=O)NN=C1c2ccccc2-c2nc3nonc3nc21`, the CC50 in series [1] is > 10 µM. The EC50 in series [2] stood at 1450 nM; in series [3] it was 1180 nM.
Taken in the same sequence, the figures for `C[C@H](Nc1cncc(-c2cccc(OC(F)(F)F)c2)n1)c1ccccc1` were > 10 µM, > 264 nM and 1180 nM.
For `COC(=O)N(C)C(C)(C)C(C)=NOC(=O)c1ccccc1` the same measures were > 10 µM, > 1620 nM and > 1180 nM.
Consider `CCOP(=O)(OCC)C(O)c1ccc(C)cc1` (configuration not stated), for which the CC50 in series [1] was > 10 µM. Moreover, the EC50 is > 1250 nM in series [2] and > 1180 nM in series [3].
Regarding `COc1ccc(C(=O)C(CCC(CNC(C)(C)C)C(=O)c2ccc(OC)cc2)CNC(C)(C)C)cc1` (configuration not stated), in series [1], the CC50 was > 10 µM. For the same compound, the EC50 in series [2] came out at 1120 nM; in series [3], 1190 nM.
Taken in the same sequence, the figures for `CC(C)n1nnnc1CN1CCN(c2ccccc2F)CC1` were > 10 µM, > 1480 nM and > 1190 nM.
On to `COc1ccc(CCNc2nc(NCCCN(C)C)ncc2C(=O)NCc2ccccc2)cc1OC`, for which, in series [1], the CC50 is > 10 µM. Besides, the results for the EC50 in series [2] and in series [3] were 605 nM and > 1190 nM, respectively.
For `O=C1CC(c2cccc([N+](=O)[O-])c2)c2cc3c(cc2N1)OCO3` (configuration not stated) the same measures were > 100 µM, > 10200 nM and > 11800 nM.
For `COc1ccc(C2C(C(N)=O)=C(C)Nc3ncnn32)cc1OC` (configuration not stated) the same measures were > 10 µM, 380 nM and 1150 nM.
For `N#C/C(=C\c1cn(Cc2ccc(Cl)cc2Cl)c2ccccc12)c1nc2ccccc2[nH]1` the same measures were > 10 µM, 315 nM and 1150 nM.
Turning to `CC(C)CNC(=O)c1cnc(NCCCN2CCCCC2C)nc1NCC1CCCCC1` (configuration not stated), the CC50 in series [1] is > 10 µM. Besides, the EC50 in series [2] was 434 nM; in series [3], 1170 nM.
`COc1ccc(OCC(=O)Nc2c(C)n(C)n(-c3ccccc3)c2=O)cc1`: in series [1], the CC50 is > 10 µM. Further, the results for the EC50 in series [2] and in series [3] were > 1250 nM and > 1160 nM, respectively.
Taken in the same sequence, the figures for `COc1ccc(CCNC(=O)c2cc(S(=O)(=O)N3CCC4(CC3)OCCO4)ccc2F)cc1OC` were > 10 µM, > 1250 nM and > 1160 nM.
For the compound `CCOC(=O)c1cnc2ccc(OCC)cc2c1NCC1CCCN1CC` (configuration not stated), in series [1], the CC50 was > 10 µM. Further, the EC50 in series [2] is > 740 nM; in series [3], 1150 nM.
In the case of `NCCNC(=O)COC(c1cccnc1)c1ccccc1Cl` (configuration not stated), the CC50 in series [1] was > 10 µM. Moreover, the results for the EC50 in series [2] and in series [3] were > 1250 nM and > 1150 nM, respectively.
Regarding `Cn1c(=O)c2c(ncn2CC(O)CN2CCCC2)n(C)c1=O` (configuration not stated), the CC50 in series [1] was > 10 µM. The 50% effective concentration (EC50) was > 1250 nM in series [2] and > 1190 nM in series [3].
For `CCN(CC)c1ccc(/C=C/C23NC(=O)CCN2c2ccc(C)cc2C3(C)C)cc1` (configuration not stated), the CC50 in series [1] is > 10.1 µM. Moreover, the EC50 in series [2] amounted to 1620 nM; in series [3] it was 1210 nM.
Taken in the same sequence, the figures for `N=C(NN=Cc1cccc([N+](=O)[O-])c1)SC1CC(=O)N(c2cc(Cl)ccc2Cl)C1=O` (configuration not stated) were > 10 µM, > 1250 nM and > 1190 nM.
In series [1], `CCCN[P+](CC(C)C)(NCCC)NCCC` returned a CC50 of 3.34 µM. The EC50 came to 211 nM in series [2] and 398 nM in series [3].
For `COc1ccc(-c2cncc3ccc(C(=O)NCc4ccncc4)nc23)cc1` the same measures were > 10 µM, > 1350 nM and 1190 nM.
For `CCOC(=O)c1c(NC(=O)CSc2nnc(CNC(=O)c3cccc(C)c3)n2-c2cccc(C)c2)sc2c1CCC2`, in series [1], the CC50 is > 10 µM. The EC50 in series [2] was > 1600 nM; in series [3], > 1190 nM.
As for `COc1ccc(/C=C2\N=C(c3ccc(Cl)cc3)N(c3ccccc3)C2=O)cc1OC`, the CC50 in series [1] is > 10 µM. Besides, the results for the EC50 in series [2] and in series [3] were > 1250 nM and > 1150 nM, respectively.
For `O=c1[nH]c2cc(Cl)c(Br)nc2[nH]1` the same measures were > 10 µM, > 1250 nM and 1180 nM.
`C=CCOC(=O)C1=C(C)N=C2SCCC(=O)N2C1c1ccc(OC(=O)c2ccco2)cc1` (configuration not stated): the CC50 in series [1] is > 100 µM. The EC50 in series [2] is > 12400 nM; in series [3], > 11900 nM.
Regarding `COc1ccccc1-n1c(=O)c2c3c(sc2n2c(C)nnc12)CCC3`, in series [1], the CC50 is > 10 µM. The figures for the EC50 in series [2] and in series [3] were > 1250 nM and > 1190 nM, respectively.
Take `CC(=O)Nc1sc(C)c(C)c1N=Nc1ccc(S(=O)(=O)O)cc1`: the CC50 in series [1] is > 10 µM. The 50% effective concentration (EC50) was 1150 nM in series [2] and > 1180 nM in series [3].
As to `CN1C2CCC1/C(=C\c1ccsc1)C(=O)/C2=C\c1ccsc1`, in series [1], the CC50 is > 10 µM. The EC50 was > 1300 nM in series [2] and > 1190 nM in series [3].
For `CN(C)c1ccc(/C=C/c2cccc(/C=C/c3ccc(N(C)C)cc3)[n+]2C)cc1` the same measures were 2.53 µM, 210 nM and 296 nM.
Taken in the same sequence, the figures for `O=C(Nc1ccccc1)Nc1ccc(S(=O)(=O)Nc2ccc(Br)cc2)cc1` were > 10 µM, 662 nM and 1160 nM.
Consider `N#Cc1nc(-c2ccccc2)c(-c2ccc(-c3nc(C#N)c(C#N)nc3-c3ccccc3)cc2)nc1C#N`, for which the 50% cytotoxic concentration (CC50) in series [1] is > 10 µM. Also, the EC50 amounted to 1610 nM in series [2] and 1160 nM in series [3].
For `COc1ccc(N(CCCNC(=O)CCl)C(=O)Nc2cccc(Cl)c2)cc1` the same measures were > 10 µM, > 1600 nM and 1150 nM.
For `COC(=O)[C@@H]1C[C@@H](NC(=O)c2ccccc2F)CN1CC(c1ccccc1)c1ccccc1`, in series [1], the CC50 is > 10 µM. In addition, the figures for the EC50 in series [2] and in series [3] were 1060 nM and > 1180 nM, respectively.
Take `Clc1ccc2c(c1)c(-c1ccccc1)nc1nnnn12`: the CC50 in series [1] is > 10 µM. Also, the EC50 in series [2] was > 1250 nM; in series [3], > 1180 nM.
Regarding `CC1(c2ccccc2)CC(c2ccccc2)=Nc2nonc2N1` (configuration not stated), the CC50 in series [1] was > 10 µM. Moreover, the EC50 in series [2] is 586 nM; in series [3] it was 1170 nM.
Taken in the same sequence, the figures for `Clc1cccc(C(Nc2cccnc2)(c2ccccc2)c2ccccc2)c1` were > 10 µM, 618 nM and 1190 nM.
With `CCN(CC)CCCC(C)Nc1c2ccc(Cl)cc2nc2ccc(OC)nc12` (configuration not stated), in series [1], the CC50 is > 6.25 µM. For the same compound, the EC50 was found to be 744 nM in series [2] and 746 nM in series [3].
For `COc1ccccc1/C=C/CN1CCN(c2ccccn2)CC1` the same measures were > 10 µM, > 1630 nM and > 1150 nM.
Taken in the same sequence, the figures for `COc1cc(CN(C)c2ccc3nc(N)nc(N)c3c2)cc(OC)c1OC` were > 10 µM, 7.31 nM and 1190 nM.
On to `COc1ccccc1CNc1ncc(C(=O)NCCCN2CCCC2=O)c(NCCc2ccccc2)n1`, for which the CC50 in series [1] was > 10 µM. The EC50 in series [2] was determined as 214 nM; in series [3], 1190 nM.
On to `CCN(c1ccc(F)cc1)S(=O)(=O)c1ccc2[nH]cc(C(=O)NCCC(C)C)c(=O)c2c1`, for which the CC50 in series [1] was > 10 µM. Further, the values for the EC50 in series [2] and in series [3] were > 1250 nM and > 1150 nM, respectively.
Taken in the same sequence, the figures for `CCc1ccc(C(=O)N2CCCn3cccc3C2c2ccc(C(C)(C)C)cc2)cc1` (configuration not stated) were > 10 µM, > 1250 nM and 1160 nM.
